This is an account of results in patent US11260084B2 (priority 2017, dated 2022).

For assay [1], the system named is Eimeria acervulina, Eimeria maxima and Eimeria tenella. Put plainly: Example 8 broiler study under severe coccidiosis challenge conditions. It counts as in vivo, Ross 708 broiler chicks. The note with it: 28-day mortality; compared to the challenged control. The text has this:
EXAMPLE 8 of the present disclosure describes a study to evaluate the efficacy of a combination of xylanase (10 U/g feed), B. licheniformis strain PWD-1 (1×10^5 CFU/g feed), and B. amyloliquefaciens strain Ba-BPD1 (5×10^5 CFU/g feed) referred to as “Xyl+B+Y”, to minimize the severity of gut lesions and improve overall livability of broiler chickens fed standard corn-soy diets and reared under severe coccidiosis challenge conditions. In the study chicks were twice challenged with a live vaccine containing the live oocysts of highly-immunogenic, coccidiostat-sensitive strains of Eimeria acervulina, Eimeria maxima and Eimeria tenella by oral gavage and the Xyl+B+Y combination was compared to salinomycin sodium which is referred to as “Coccidiostat” in FIG. 13. […]
MATERIALS AND METHODS: Four hundred male Ross 708 broiler chicks were randomly assigned to 1 of 4 dietary treatments, with 7 replicate battery cages per treatment (except Treatment 1, the unchallenged positive control, which contained 4 replicate cages), and 16 birds per cage. […] The key parameters evaluated were upper-tract intestinal lesion scores, middle-tract intestinal lesion scores, mortality/livability, and feed conversion ratio (FCR).

Assay [2] deals with Clostridium perfringens, Eimeria acervulina, and Eimeria maxima, and Eimeria tenella. It counts as in vivo, Ross 708 broilers. Conditions: at 21-days and 42-days of age; versus control.

For the compound `CC[C@@H](C(=O)[C@@H](C)[C@@H](O)[C@H](C)[C@@H]1O[C@@H]([C@@H](CC)C(=O)O)CC[C@@H]1C)[C@H]1O[C@]2(C=C[C@@H](O)[C@]3(CC[C@@](C)([C@H]4CC[C@](O)(CC)[C@H](C)O4)O3)O2)[C@H](C)C[C@@H]1C` [Coccidiostat, salinomycin sodium], in assay [1], the reduction of mortality worked out at 25%.
Take bacitracin methylene disalicylate [AGP]: the effect on mortality entry in assay [2] is reported as “did not significantly improve”.
